Holding throughout (type): in vivo, human
In experiment [1] the test system is diarrhoea predominant Irritable Bowel Syndrome. Kind of experiment: Example 3: case of a person with diarrhoea predominant Irritable Bowel Syndrome treated with Salofalk granules, then balsalazide.
The subject of experiment [2] is diarrhoea-predominant IBS. Kind of experiment: Example 1: case of a person with severe diarrhoea-predominant IBS treated with balsalazide. An excerpt: A person presented with a 7 year history of worsening diarrhoea (watery 6-12/day), urgency, cramping lower abdominal pain and at times faecal incontinence. There was no clear preceding illness nor antibiotic usage. They underwent numerous investigations, beginning with general practitioners ordering stool cultures, blood tests, ultrasound and CT scan examinations. With the passage of time they noticed that some foods caused worsening of symptoms, and was told by a naturopath that they suffered from a ‘food allergy’. […] They consulted a gastroenterologist and underwent endoscopic small bowel biopsy—where coeliac disease was excluded histologically—and colonoscopy with biopsy and further stool cultures. All tests being non-diagnostic, they were told they had severe, diarrhoea-predominant IBS. They continued on the restricted diet, and was referred for counselling and hypnotherapy. Over the next 6-12 months they progressively lost weight with only modest control of their symptoms by the diet. Within 2 weeks of commencing increasing doses of balsalazide from 1.5 gram to 3 grams per day, the stools progressively formed up, with frequency reducing to 1-2 formed stools per day. […] By 6 weeks of treatment they regained 7 kg in weight.

For experiment [3], the system named is diarrhoea-predominant Irritable Bowel Syndrome. The experiment is described as follows: Inventor's clinical experience in patients with diarrhoea-predominant IBS. The settings on record: from clinical experience. An excerpt: Balsalazide is better than mesalazine (5-ASA) in controlling and may inhibit even more powerfully the symptoms of diarrhoea-predominant IBS and associated conditions enumerated below. This is unexpected. It was not expected that balsalazide would be capable of treating diarrhoea-predominant IBS as it is a very different molecule to the conventional 4ASA and 5ASA compounds. […] It is noted that the side chain together with the 5-ASA potentiates inhibition of gas production, cramping, fluid secretion, and mucus production. It appears the large side chain apart from the salicylate component is effective in treating diarrhoea. In addition, in a subgroup of patients the constipation component of IBS may respond to the same treatment.

The subject of experiment [4] is chronic IBS. Kind of experiment: Example 2: case of a person with chronic IBS (diarrhoea with intervening constipation, diverticulosis) treated with balsalazide. From the text: A person complained of greater than 20 years of diarrhoea with intervening constipation, abdominal bloating, pains, flatulence, and nausea with acid reflux. They had undergone several complete medical investigations including stool tests, blood tests, X-ray imaging and colonoscopic examinations, with negative findings apart from the presence of diverticulosis. Diagnosed as chronic IBS they tried increasing fibre intake, controlling stress, and changing their diet, all to no avail. On commencing balsalazide 1.5 g/day and pushing the dose upwards to 4.5 g/d their diarrhoea, pains, flatulence and nausea abated. At the higher dose the constipation also disappeared.

[5] abbreviates: balsalazide 1.5 gram to 3 grams per day.

For `O=C(O)CCNC(=O)c1ccc(/N=N/c2ccc(O)c(C(=O)O)c2)cc1` [balsalazide, 5[(1E)-[4-[[(2-carboxyethyl)amino]carbonyl]phenyl]azo]-2-hydroxybenzoic acid], the improvement in symptoms entry in experiment [1] (750 mg twice daily slowly raised to 1.5 grams twice daily) is on record as “dramatic”. In addition, in experiment [1] (3 grams twice daily), the stool frequency result is given as “two”, the symptoms entry is given as “largely disappeared” and the urgency or flatulence entry is “without any urgency or flatulence”. Also, the durability of improvements result in experiment [1] (at four months follow up) was “sustained”. In experiment [2] (setting [5]), the pain result is listed as “completely abolished” and the urgency entry is “disappaeared”. In experiment [2] (by 6 weeks of treatment), the weight regained came out at 7 kg. Further, the “symptom status at follow up” value in experiment [2] (on balsalazide at 26 weeks) was “virtually completely symptom-free”. In experiment [2] (within 2 weeks of increasing doses from 1.5 gram to 3 grams per day, baseline watery 6-12/day), the stool frequency was 1-2 formed stools per day. Moreover, in experiment [3], the “suppression of symptoms of diarrhoea-predominant Irritable Bowel Syndrome compared with conventional 4ASA and 5ASA compounds” value was “much more powerful”. In experiment [4] (at 26 weeks), the durability of improvements result was “remain sustained”. Moreover, the constipation entry in experiment [4] (at the higher dose (4.5 g/d)) is on record as “disappeared”. Also, in experiment [4] (balsalazide 1.5 g/day pushed upwards to 4.5 g/d), the “diarrhoea, pains, flatulence and nausea” value is “abated”.

Source of the values: US10328088B2, “Use of aminosalicylates in diarrhoea-predominent irritable bowel syndrome” (Salix Pharmaceuticals, Inc., priority 2004, dated 2019).
